Measurements: patent US10495630B2, “Methods for the determination of compounds or compositions for the treatment of lipofuscin related diseases and compounds or compositions” (KATAIRO GMBH, priority 2014, dated 2019)
Like-named read-outs stand apart in the source and are kept apart here.

Assays:
[1] = tested on: Abca4 (−/−) mice; assay: A2E concentration in eyes of Abca4 (−/−) mice after intravitreal injection, HPLCMSMS; format: in vivo; settings: for response vs control in vivo at 20000 µg/mL / response vs control in vivo at 40000 µg/mL: Mus musculus, 168 h, read-out: % of A2E relative to age matched untreated
Source text: […] […] The left eye was not treated and maintained as a control. Untreated eyes of age-matched mice lacking the Abca4 transporter were an additional control.
The concentration in each treated eye was then expressed as a percentage of the average concentration in all untreated eyes in the mice of the same age.
The left eye was not treated and maintained as a control. Untreated eyes of age-matched mice lacking the Abca4 transporter were an additional control.
The left eye was not treated and maintained as a control. Untreated eyes of age-matched mice lacking the Abca4 transporter were an additional control. […] Tryptophan is capable of absorbing and re-radiating light energy, as is riboflavin.
Water solutions were diluted 1:3 with acetonitrile and then sealed in vials for injection. 6 μL of the water acetonitrile solutions were injected onto a 2×50 mm Phenyl derived HPLC column (3 μm) and eluted with a gradient from 20% acetonitrile to 100% acetonitrile over 4 minutes at a flow rate of 500 μL/minute.

[2] = tested on: human retinal pigment epithelium (RPE) cells; assay: Degradation of lipofuscin in human RPE cells (micrographs after one week); format: cell-based; settings: one week incubation
Method: To explore the role of the reactive chemical species the human retinal pigment epithelium (RPE) cells were treated with the super oxide anion donor (SAD) soraprazan ((7R,8R,9R)-2,3-Dimethyl-8-hydroxy-7-ethoxy-9-phenyl-7,8,9,10-tetrahydro-imidazo-[1,2-h][1,7]-naphthyridin)—a member of the THPE family—either alone or in combination with a known radical oxygen scavenger, cardioxane.
After growing the hRPE-cells to confluence, the test compounds were added to seven cell cultures and the cells were incubated at 37° C. and 5% CO2. The SAD was added to the cell cultures in a concentration of 50 μg/ml either alone or in combination with cardioxane in a concentration of 10 μM, 50 μM or 100 μM. Additionally, three cell cultures were incubated only with cardioxane in a concentration of 10 μM, 50 μM or 100 μM. As control, one cell culture was grown without test compounds.
After one week of incubation micrographs of the differently incubated RPE cells were taken as shown in FIG. 2A to H. In the original images, lipofuscin in cells is visible as a yellow-gold-orange fluorescent structure, before a blue background. In the grey scale reproduction in FIG. 2 the yellow-gold-orange structure appear light grey (yellow) or dark grey (gold-orange) before a grey background. Areas of degradation of lipofuscin in the hRPE cells appears as bright blue to whitish structures which appear white in the in the grey scale reproduction and are circled in FIG. 2A.
The bright blue structures are only observed in the experimental set up with SAD alone (FIG. 2A).

[3] = tested on: melanin A2E particles; assay: Assay for binding to A2E melanin particles; set-up: species or system S. officinalis; settings: FIG. 3A; 37° C., 4 h
Method: To study the binding of A2E to melanin, a suspension of 2 mg/ml natural melanin (S. officinalis) is prepared in PBS, pH 7.4. The melanin suspension is brought to 37° C. and sonicated for 15 min to form a uniform suspension. The melanin suspension (0.75 ml) is measured in aliquots into glass test tubes (12×75 mm) under continuous shaking to avoid sedimentation. The solution of A2E (0.75 ml) is added to the above-mentioned melanin aliquots, and the tubes will be incubated in a shaker incubator at 37° C. and 300 rpm for 4 h.
Controls are prepared by incubating A2E in the absence of melanin in incubation medium and by incubating melanin without A2E. Compounds are added to melanin suspension from stock solutions. After incubation, the suspensions are centrifuged at 13,000 rpm for 15 min at room temperature to remove the melanin granules. The supernatant is collected, diluted with acetonitrile and analyzed by an LC-MS/MS method to determine the concentration of […] in the supernatant. The kinetic parameters of binding study, i.e., maximal binding capacity (rmax) and the binding affinity (k) are determined for A2E according to the previously reported method (Cheruvu et al., 2008).
A high percentage of soraprazan and demethoxysoraprazan—about 46% and about 53%, respectively—are found bound to the melanin A2E particles.

[4] = dyes and porphyrins, intravitreal 2 μl of 20 mg/ml, one week after injection
[5] = tetracycline antibiotics, intravitreal 2 μl of 20 mg/ml, one week after injection
[6] = amino acids or metabolites, intravitreal 2 μl of 40 mg/ml, one week after injection
[7] = chelators or metal interactors, intravitreal 2 μl of 40 mg/ml or concentration as indicated, one week after injection
[8] = quinolones, intravitreal 2 μl of 20 mg/ml, one week after injection
[9] = redox active and chelating protein, intravitreal 2 μl of 20 mg/ml, one week after injection
[10] = redox active small molecules and chelator, intravitreal 2 μl of 20 mg/ml, 16 hours after injection
[11] = permeability agents, intravitreal 2 μl of 40 mg/ml or concentration as indicated in the table, one week after injection

C=C[C@H]1C[N@@]2CC[C@H]1C[C@H]2[C@H](O)c1ccnc2ccc(OC)cc12 [Quinine]
response vs control in vivo at 20000 µg/mL [1, 4]: 81% | Concentration A2E (μM) in the treated eye [1, 4]: 17 µM

C[C@H]1c2cccc(O)c2C(=O)C2=C(O)[C@]3(O)C(=O)C(C(N)=O)=C(O)[C@@H](N(C)C)[C@@H]3[C@@H](O)[C@@H]21 [Doxycycline]
response vs control in vivo at 20000 µg/mL [1, 5]: 81% | Concentration A2E (μM) in the treated eye [1, 5]: 28 µM

C[C@@H](CN1CC(=O)NC(=O)C1)N1CC(=O)NC(=O)C1 [cardioxane]
Effect on the lipofuscin degradation seen with SAD ([2]; cardioxane 10, 50 or 100 μM added to SAD 50 μg/ml): abolishes the degradation of lipofuscin | Degradation / removal of lipofuscin in hRPE cells ([2]; test compound alone (SAD 50 μg/ml; cardioxane 10, 50 or 100 μM)): do not show any degradation of lipofuscin

O=C(N[C@H](CO)[C@H](O)c1ccc([N+](=O)[O-])cc1)C(Cl)Cl [Chloramphenicol]
response vs control in vivo at 20000 µg/mL [1, 5]: 70% | Concentration A2E (μM) in the treated eye [1, 5]: 24 µM

O=C([O-])c1c(Cl)c(Cl)c(Cl)c(Cl)c1-c1c2cc(I)c(=O)c(I)c-2oc2c(I)c([O-])c(I)cc12.[Na+].[Na+] [Rose bengal]
% of A2E relative to age matched untreated [1, 4]: 85% | Concentration A2E (μM) in the treated eye [1, 4]: 16 µM

CN(C)c1ccc(O)c2c1C[C@H]1C[C@H]3[C@H](N(C)C)C(O)=C(C(N)=O)C(=O)[C@@]3(O)C(O)=C1C2=O [Minocycline]
response vs control in vivo at 20000 µg/mL [1, 5]: 100% | Concentration A2E (μM) in the treated eye [1, 5]: 33 µM

O=C1/C(=C2\Nc3ccc(S(=O)(=O)[O-])cc3C2=O)Nc2ccc(S(=O)(=O)[O-])cc21.[Na+].[Na+] [Indigocarmine]
% of A2E relative to age matched untreated [1, 4]: 98% | Concentration A2E (μM) in the treated eye [1, 4]: 22 µM

CC1(C)C(/C=C/C=C/C=C/C=C2\N(CCCCS(=O)(=O)O)c3ccc4ccccc4c3C2(C)C)=[N+](CCCCS(=O)(=O)[O-])c2ccc3ccccc3c21 [Indocyanine green]
response vs control in vivo at 20000 µg/mL [1, 4]: 66% | Concentration A2E (μM) in the treated eye [1, 4]: 20 µM

Cc1cc2nc3c(=O)[nH]c(=O)nc-3n(C[C@H](O)[C@H](O)[C@H](O)COP(=O)(O)OP(=O)(O)OC[C@H]3O[C@@H](n4cnc5c(N)ncnc54)[C@H](O)[C@@H]3O)c2cc1C [FAD]
% of A2E relative to age matched untreated [1, 4]: 99% | Concentration A2E (μM) in the treated eye [1, 4]: 23 µM

N[C@@H](CS)C(=O)O [Cysteine]
response vs control in vivo at 40000 µg/mL [1, 6]: 59% | Concentration A2E (μM) in the treated eye [1, 6]: 12 µM | % of A2E relative to age matched untreated [1, 7]: 59% | Concentration A2E (μM) in the treated eye [1, 7]: 12 µM

N[C@@H](Cc1c[nH]c2ccccc12)C(=O)O [Tryptophan]
response vs control in vivo at 40000 µg/mL [1, 6]: 66% | Concentration A2E (μM) in the treated eye [1, 6]: 13 µM

c1ccc2c(c1)Nc1ccccc1S2 [Phenothiazine]
response vs control in vivo at 20000 µg/mL [1]: 85% | Concentration A2E (μM) in the treated eye [1, 4]: 27 µM

CCn1cc(C(=O)O)c(=O)c2cc(F)c(N3CCNCC3)cc21 [Norfloxacin]
response vs control in vivo at 20000 µg/mL [1, 8]: 106% | Concentration A2E (μM) in the treated eye [1, 8]: 36 µM

Cytochrome C: redox active electron carrier protein used as a model peroxidase
% of A2E relative to age matched untreated [1, 9]: 81% | Concentration A2E (μM) in the treated eye [1, 9]: 18 µM

N[C@@H](CCC(=O)N[C@@H](CS)C(=O)NCC(=O)O)C(=O)O [Glutathione]
response vs control in vivo at 40000 µg/mL [1, 6]: 89% | Concentration A2E (μM) in the treated eye [1, 6]: 35 µM

C[C@@H]1CC[C@H]2[C@@H](C)C(=O)O[C@@H]3O[C@@]4(C)CC[C@@H]1[C@]32OO4 [Artemesinin]
% of A2E relative to age matched untreated [1, 10]: 75% | Concentration A2E (μM) in the treated eye [1, 10]: 38 µM

c1ccc2c(c1)-c1nc-2nc2[nH]c(nc3nc(nc4[nH]c(n1)c1ccccc41)-c1ccccc1-3)c1ccccc21 [Phthalocyanine]
% of A2E relative to age matched untreated [1, 4]: 142% | Concentration A2E (μM) in the treated eye [1, 4]: 31 µM

R/S-demethoxysoraprazan
Proportion of compound bound to the melanin A2E particles after incubation [3]: bind to the A2E melanin particles although to a lower percentage

CN(C)c1ccc(C(=C2C=CC(=[N+](C)C)C=C2)c2ccc(N(C)C)cc2)cc1 [Crystal violet]
response vs control in vivo at 20000 µg/mL [1, 4]: 71% | Concentration A2E (μM) in the treated eye [1, 4]: 23 µM

Cyclodextrin
% of A2E relative to age matched untreated [1, 11]: 83% | Concentration A2E (μM) in the treated eye [1, 11]: 20 µM

Cc1cc2nc3c(=O)[nH]c(=O)nc-3n(C[C@H](O)[C@H](O)[C@H](O)CO)c2cc1C [Riboflavin]
response vs control in vivo at 40000 µg/mL [1, 6]: 91% | Concentration A2E (μM) in the treated eye [1, 6]: 19 µM

CN1CCN(c2c(F)cc3c(=O)c(C(=O)O)cn(CCF)c3c2F)CC1 [Fleroxacin]
response vs control in vivo at 20000 µg/mL [1, 8]: 74% | Concentration A2E (μM) in the treated eye [1, 8]: 24 µM

Transferrin (apo): protein capable of binding iron with high affinity
% of A2E relative to age matched untreated [1, 9]: 82% | Concentration A2E (μM) in the treated eye [1, 9]: 15 µM

demethoxysoraprazan
Proportion of compound bound to the melanin A2E particles after incubation [3]: about 53%

C[C@@H]1CN(c2c(F)c(N)c3c(=O)c(C(=O)O)cn(C4CC4)c3c2F)C[C@H](C)N1 [Sparfloxacin]
response vs control in vivo at 20000 µg/mL [1, 8]: 99% | Concentration A2E (μM) in the treated eye [1, 8]: 36 µM

c1cnc2c(c1)ccc1cccnc12 [1,10-phenanthroline]
response vs control in vivo at 40000 µg/mL [1, 7]: 91% | Concentration A2E (μM) in the treated eye [1, 7]: 20 µM

O=C1OC2(c3ccc(O)cc3Oc3cc(O)ccc32)c2ccccc21 [Fluoroscein]
response vs control in vivo at 20000 µg/mL [1, 4]: 85% | Concentration A2E (μM) in the treated eye [1, 4]: 20 µM
